In PMC13266999, “Designing Antibiotics with Inherent Resistance to Efflux as a Strategy to Revive Discovery against Multidrug-Resistant Pathogens” (Journal of Medicinal Chemistry, 2026):
In brackets after ≈: the same amount, converted by molar mass. Several values for one entry are separate records, joined by “and”; a condition that tells them apart may be missing. Identical values can stand only once. Like-named read-outs stand apart in the source and are kept apart here.

Assays:
A. baumannii = A. baumannii efflux chequerboard assay; format: cell-based, Acinetobacter baumannii; conditions: for MIC: Acinetobacter baumannii
Protocol: Checkerboard assays were performed by preparing two separate 2-fold dilution series of compounds in two 96 well plates, one horizontally, one vertically. […] Plates were incubated at 37 C for 20 h and the absorbance (OD600) was read on a CLARIOstar spectrophotometer (BMG Labtech). The fractional inhibitory concentration was calculated as follows: ΣFIC = [(MIC of A in combination)/(MIC of A alone)] + [(MIC of B in combination)/(MIC of B alone)].

S. aureus = assay: MIC (microbroth dilution); format: cell-based, Staphylococcus aureus; conditions: for MIC: Staphylococcus aureus; for fold difference in MIC, SA-1199B vs SA-1199: NorA-overexpressing vs WT; for fold potentiation compared to levofloxacin: fluoroquinolone-resistant NCTC 13616 and NCTC 13277
Protocol: (§1) All bacteria were maintained on tryptic soy agar (TSA), except Streptococcus spp., which were maintained on Columbia agar plates containing 5% horse blood. […] Bacteria were grown to stationary phase in liquid culture overnight, with shaking at 200 rpm, before being back diluted to the relevant starting concentration for each assay below. MICs were measured by the microbroth dilution method. […] Absorbance at OD600 was read on a CLARIOstar spectrophotometer (BMG Labtech) and the MIC was defined as the minimum concentration of compound where no visible growth was detected. […] MICs were also performed in the presence of the outer membrane permeator, polymyxin b nonapeptide (PMBN) following the same MIC method but with the following variation. The 2-fold dilution series of compound was prepared as above, then 50 μL of PMBN at a final concentration of 30 μg/mL was added to relevant wells, while 50 μL/well of blank media was added to the remaining wells. Bacteria were then added at 50 μL/well for a starting concentration as above. […] The MICs were read and defined as above. All animal procedures were performed by the contract research organization Pharmacology Discovery Services Taiwan in accordance with the Guide for the Care and Use of Laboratory Animals. The procedures were approved by the Institutional Ethics Committee of Pharmacology Discovery Services Taiwan, Ltd. (approval no. AB127662), in compliance with animal welfare legislation in Taiwan.

E. faecalis = assay: MIC (microbroth dilution); format: cell-based, Enterococcus faecalis; conditions: Enterococcus faecalis, read-out: MIC
Protocol: as §1

[1] = tested on: NorA overexpressing strain NCTC 13616; assay: Reserpine growth (efflux inhibition) assay; conditions: for AUC of growth curve: biological replicates 1-3
Protocol: Statistical analyses were performed with GraphPad Prism V9.5.0. […] Unpaired t tests were used when comparing two samples in the gyrase assays.

[2] = ATCC17978, A. baumannii ATCC 17978, read-out: MIC alone
[3] = A. baumannii AYE, read-out: MIC alone
[4] = ATCC9144, ATCC 9144, read-out: MIC
[5] = NCTC13277, NCTC 13277, read-out: MIC
[6] = NCTC13616, NCTC 13616, read-out: MIC

| Compound | MIC +50 (0.25x MIC) (A. baumannii; A. baumannii ATCC 17978) [µg/mL] | MIC +50 (0.5x MIC) (A. baumannii; A. baumannii ATCC 17978) [µg/mL] | MIC +50 (0.25x MIC) (A. baumannii; A. baumannii AYE) | MIC (S. aureus; [4]) [µg/mL] | MIC (S. aureus; [5]) [µg/mL] | MIC (S. aureus; [6]) [µg/mL] | MIC (S. aureus; SA-1199, read-out: MIC) [µg/mL] | MIC (S. aureus; SA-1199B (NorA-overexpressing)) [µg/mL] | further results |
| --- | --- | --- | --- | --- | --- | --- | --- | --- | --- |
| CC(C)(O/N=C(\C(=O)N[C@@H]1C(=O)N2C(C(=O)[O-])=C(C[n+]3ccccc3)CS[C@H]12)c1csc(N)n1)C(=O)O [Ceftazidime] | 0.94 to 3.76 | 0.003 to 0.438 | >1,024 μg/mL |  |  |  |  |  | MIC +50 (0.5x MIC) (A. baumannii; A. baumannii AYE): 3.76 to 224 µg/mL; MIC (A. baumannii; [2]): 4 to 16 µg/mL; MIC (A. baumannii; [3]): > 1020 µg/mL |
| Colistin | 0.015 to 0.123 | 0.0017 to 0.015 | 0.015 µg/mL |  |  |  |  |  | MIC alone (A. baumannii; A. baumannii ATCC 17978): 0.25 µg/mL; MIC +50 (0.5x MIC) (A. baumannii; A. baumannii AYE): 0.003 to 0.007 µg/mL; MIC alone (A. baumannii; A. baumannii AYE): 0.25 to 0.5 µg/mL |
| NC[C@H]1O[C@H](O[C@H]2[C@H](O)[C@@H](O[C@H]3O[C@H](CO)[C@@H](O)[C@H](N)[C@H]3O)[C@H](N)C[C@@H]2N)[C@H](N)C[C@@H]1O [Tobramycin] | 1.88 to 3.76 | 0.014 to 0.55 | 56 to 248 µg/mL |  |  |  |  |  | MIC +50 (0.5x MIC) (A. baumannii; A. baumannii AYE): 0.375 to 136 µg/mL; MIC (A. baumannii; [2]): 4 µg/mL; MIC (A. baumannii; [3]): 256 µg/mL |
| O=C(O)c1cn(C2CC2)c2c(Cc3cccc4ccccc34)c(N3CCNCC3)c(F)cc2c1=O [Compound 19, 1-Cyclopropyl-6-fluoro-8-(naphthalen-1-ylmethyl)-4-oxo-7-(piperazin-1-yl)-1,4-dihydroquinoline-3-carboxylic acid] |  |  |  | 64 (≈ 136 µM) | 32 (≈ 67.9 µM) | 32 (≈ 67.9 µM) | 16 (≈ 33.9 µM) | 16 (≈ 33.9 µM) | MIC (S. aureus; USA300, USA300, read-out: MIC): 32 µg/mL (≈ 67.9 µM); MIC (E. faecalis; NCTC775, NCTC 775): 16 µg/mL (≈ 33.9 µM); MIC (E. faecalis; NCTC12201, NCTC 12201): 16 µg/mL (≈ 33.9 µM); MIC (E. faecalis; NCTC12204, NCTC 12204): 16 µg/mL (≈ 33.9 µM) |
| O=C(O)c1cn(C2CC2)c2cc(N3CCN[C@@H](Cc4cccc5ccccc45)C3)c(F)cc2c1=O [Compound 12, (S)-1-Cyclopropyl-6-fluoro-7-(3-(naphthalen-1-ylmethyl)piperazin-1-yl)-4-oxo-1,4-dihydroquinoline-3-carboxylic acid] |  |  |  | 4 (≈ 8.48 µM) | 8 (≈ 17 µM) | 8 (≈ 17 µM) | 2 (≈ 4.24 µM) | 4 (≈ 8.48 µM) | MIC (S. aureus; USA300, USA300, read-out: MIC): 8 to 16 µg/mL (≈ 17 to 33.9 µM); MIC (E. faecalis; NCTC775, NCTC 775): 8 µg/mL (≈ 17 µM); MIC (E. faecalis; NCTC12201, NCTC 12201): 8 µg/mL (≈ 17 µM); MIC (E. faecalis; NCTC12204, NCTC 12204): 8 µg/mL (≈ 17 µM) |
| C[C@H]1COc2c(N3CCN(c4ncccn4)CC3)c(F)cc3c(=O)c(C(=O)O)cn1c23 [Compound 42, (S)-9-Fluoro-3-methyl-7-oxo-10-(4-(pyrimidin-2-yl)piperazin-1-yl)-2,3-dihydro-7H-[1,4]oxazino[2,3,4-ij]quinoline-6-carboxylic acid] |  |  |  | 0.06 (≈ 0.141 µM) | > 32 | 8 (≈ 18.8 µM) | 0.06 (≈ 0.141 µM) | 0.25 (≈ 0.588 µM) | fold difference in MIC, SA-1199B vs SA-1199 (S. aureus): 4 fold; AUC of growth curve ([1]; 0.25 MIC + R (reserpine)): 1.819 and 2.376 and 1.866; AUC of growth curve ([1]; 0.25 MIC): 2.249 and 2.537 and 2.169; AUC of growth curve ([1]; 0.5 MIC + R (reserpine)): 1.376 and 1.633 and 1.162; AUC of growth curve ([1]; 0.5 MIC): 1.682 and 1.538 and 1.705 |
| CCn1cc(C(=O)O)c(=O)c2cc(F)c(N3CCN(Cc4cccc5ccccc45)CC3)nc21 [Compound 21, 1-Ethyl-6-fluoro-7-(4-(naphthalen-1-ylmethyl)piperazin-1-yl)-4-oxo-1,4-dihydro-1,8-naphthyridine-3-carboxylic acid] |  |  |  | 0.5 to 1 (≈ 1.09 to 2.17 µM) | 2 to 4 (≈ 4.34 to 8.69 µM) | 2 to 8 (≈ 4.34 to 17.4 µM) |  |  |  |
| O=C(O)c1cn(C2CC2)c2cc(N3CCN(Cc4cccc5c4CCCC5)CC3)c(F)cc2c1=O [Compound 29, 1-Cyclopropyl-6-fluoro-4-oxo-7-(4-((5,6,7,8-tetrahydronaphthalen-1-yl)methyl)piperazin-1-yl)-1,4-dihydroquinoline-3-carboxylic acid] |  |  |  | 0.25 to 1 (≈ 0.526 to 2.1 µM) | 1 to 2 (≈ 2.1 to 4.21 µM) | 1 (≈ 2.1 µM) | 0.5 (≈ 1.05 µM) | 0.5 (≈ 1.05 µM) |  |
| C[C@H]1COc2c(N3CC[C@H](Nc4ncccn4)C3)c(F)cc3c(=O)c(C(=O)O)cn1c23 [Compound 44, (S)-9-Fluoro-3-methyl-7-oxo-10-((S)-3-(pyrimidin-2-ylamino)pyrrolidin-1-yl)-2,3-dihydro-7H-[1,4]oxazino[2,3,4-ij]quinoline-6-carboxylic acid] |  |  |  | 0.25 (≈ 0.588 µM) | 8 (≈ 18.8 µM) | 8 (≈ 18.8 µM) | 0.25 (≈ 0.588 µM) | 0.25 (≈ 0.588 µM) | fold potentiation compared to levofloxacin (S. aureus): 2–4 fold |
| CNC(C)C1CCC(N)C(OC2C(N)CC(N)C(OC3OCC(C)(O)C(NC)C3O)C2O)O1 (centres unmarked) [Gentamicin] | 2.13 to 4.25 | 0.03 to 1.75 | >1,024 μg/mL |  |  |  |  |  | MIC (A. baumannii; [2]): 4 µg/mL; MIC (A. baumannii; [3]): > 1020 µg/mL |
| CCn1cc(C(=O)O)c(=O)c2cc(F)c(N3CCN(Cc4cccc5ccsc45)CC3)cc21 [Compound 38, 7-(4-(Benzo[b]thiophen-7-ylmethyl)piperazin-1-yl)-1-ethyl-6-fluoro-4-oxo-1,4-dihydroquinoline-3-carboxylic acid] |  |  |  | 0.25 (≈ 0.537 µM) | 2 (≈ 4.3 µM) | 2 (≈ 4.3 µM) |  |  |  |
| CCn1cc(C(=O)O)c(=O)c2cc(F)c(N3CCN(Cc4cccc5c4OCO5)CC3)cc21 [Compound 34, 7-(4-(Benzo[d][1,3]dioxol-4-ylmethyl)piperazin-1-yl)-1-ethyl-6-fluoro-4-oxo-1,4-dihydroquinoline-3-carboxylic acid] |  |  |  | 0.5 (≈ 1.1 µM) | > 32 | > 32 |  |  |  |
| O=C(N[C@H](CO)[C@H](O)c1ccc([N+](=O)[O-])cc1)C(Cl)Cl [Chloramphenicol] | 60 | 56 | 120 µg/mL |  |  |  |  |  | MIC +50 (0.5x MIC) (A. baumannii; A. baumannii AYE): 224 µg/mL; MIC (A. baumannii; ATCC17978, read-out: MIC alone): 64 µg/mL; MIC (A. baumannii; read-out: MIC alone): 128 µg/mL |
| O=C(O)c1cn(C2CC2)c2cc(N3CCN(Cc4ccccc4)CC3)c(F)cc2c1=O [Compound 25, 7-(4-Benzylpiperazin-1-yl)-1-cyclopropyl-6-fluoro-4-oxo-1,4-dihydro quinoline-3-carboxylic acid] |  |  |  | 0.125 to 0.25 (≈ 0.297 to 0.593 µM) | 32 (≈ 75.9 µM) | 16 to 32 (≈ 38 to 75.9 µM) |  |  |  |
| C[C@H]1COc2c(N3CCC(Nc4ncccn4)C3)c(F)cc3c(=O)c(C(=O)O)cn1c23 (stereo partly drawn) [Compound 43, (3S)-9-Fluoro-3-methyl-7-oxo-10-(3-(pyrimidin-2-ylamino)pyrrolidin-1-yl)-2,3-dihydro-7H-[1,4]oxazino[2,3,4-ij]quinoline-6-carboxylic acid] |  |  |  | 0.125 (≈ 0.294 µM) | 2 (≈ 4.7 µM) | 2 (≈ 4.7 µM) | 0.016 (≈ 0.0376 µM) | 0.03 (≈ 0.0705 µM) | fold difference in MIC, SA-1199B vs SA-1199 (S. aureus): 2 fold; fold potentiation compared to levofloxacin (S. aureus): 8 fold; AUC of growth curve ([1]; 0.25 MIC + R (reserpine)): 2.601 and 2.681 and 2.535; AUC of growth curve ([1]; 0.25 MIC): 3.079 and 3.208 and 2.944; AUC of growth curve ([1]; 0.5 MIC + R (reserpine)): 0.9550 and 0.7355 and 0.8940; AUC of growth curve ([1]; 0.5 MIC): 1.061 and 0.9440 and 1.050; efflux liability in reserpine assay ([1]; 0.5x MIC with vs without reserpine): did not demonstrate efflux liability |
